According to ChEMBL document CHEMBL2150877, “γ-Secretase modulators as potential disease modifying anti-Alzheimer's drugs” (J Med Chem, 2011):

Key:
[1] = Inhibition of gamma secretase assessed as reduction in Abeta42 production at 1 uM
Rattus norvegicus = assay: Antialzheimer activity in non-transgenic rat assessed as reduction in brain Abeta42 levels at 30 mg/kg, po measured after 4 hrs; assay type: functional; set-up: scale not given: the % may be the effect or the level left
[2] = Drug level in non-transgenic mouse plasma 30 mg/kg, po measured after 4 hrs; assay type: ADME, organism-based; set-up: dose 30 mg/kg, route oral
Mus musculus [3] = assay: Antialzheimer activity in non-transgenic mouse assessed as reduction in brain Abeta42 levels at 30 mg/kg, po measured after 4 hrs; assay type: functional; set-up: scale not given: the % may be the effect or the level left
[4] = Drug level in non-transgenic mouse brain 30 mg/kg, po measured after 4 hrs; assay type: ADME, organism-based; set-up: dose 30 mg/kg, route oral; details: read-out: Drug uptake
[5] = Inhibition of gamma secretase assessed as reduction in Abeta42 production
Mus musculus [6] = species: Mus musculus; assay: Antialzheimer activity in Tg2576 mouse expressing APP695 containing Swedish mutant assessed as reduction in Abeta42 production by ELISA; assay type: functional; set-up: scale not given: the % may be the effect or the level left
[7] = Selectivity index, ratio of IC50 for gamma secretase-mediated Abeta42 production to IC50 for […] gamma secretase-mediated Abeta40 production
[8] = Drug level in brain of rat at 10 mg/kg after 6 hrs; assay type: ADME, organism-based; set-up: dose 10 mg/kg; details: read-out: Drug uptake
Mus musculus [9] = assay: Antialzheimer activity in YAC transgenic mouse model assessed as reduction in brain Abeta42 levels at 10 mg/kg, po measured after 7 hrs; assay type: functional; set-up: scale not given: the % may be the effect or the level left
[10] = Inhibition of gamma secretase assessed as reduction in Abeta42 or Abeta40 production
[11] = Ratio of drug level in brain to plasma in rat; assay type: ADME, cell-free; details: read-out: BPR
Brain = assay: Drug level in rat brain brain; assay type: ADME, tissue-based; details: in vivo, read-out: Drug uptake
Mus musculus [12] = assay: Brain penetration in mouse assessed as brain/plasma ratio at 100 or 300 mg/kg/day for 4 to 5 days; assay type: ADME, organism-based; details: in vivo

Q: With `CC(C)CC(C(=O)O)c1cc(C#Cc2cc(F)cc(F)c2)cc(-c2ccc(C(F)(F)F)cc2)c1` (configuration not stated) as the compound, how does the inhibition [1] read?
A: 53%

Q: For `CC(C)c1ccc(-c2cc(C(CC3CC3)C(=O)O)cc(Cl)c2OCC(F)(F)F)cc1` (configuration not stated), which Activity (Rattus norvegicus) is on record?
A: 23%

Q: For `CC(C)CC(C(=O)O)c1cc(OCc2ccc(F)cc2C(F)(F)F)cc(-c2ccc(C(F)(F)F)cc2)c1` (configuration not stated), which concentration at 4 h [2] is on record?
A: 18.4 µM

Q: And the Activity (Mus musculus [3])?
A: 25%

Q: And the concentration at 4 h [4]?
A: 5.1 µM

Q: What about the IC50 [5] of the same compound?
A: 316 nM

Q: With `CC(C)CC(C(=O)O)c1cc(-c2ccc(C(F)(F)F)cc2)cc(C2CCC(C(F)(F)F)NC2)c1` (configuration not stated) as the compound, how does the inhibition [1] read?
A: 8%

Q: Which Activity (Rattus norvegicus) does the source give for `CC(C)CC(C(=O)O)c1cc(-c2ccc(OC(F)(F)F)cc2)cc(-c2ccc(C(F)(F)F)cc2)c1` (racemic) here?
A: 20%

Q: And the IC50 [5]?
A: 250 nM

Q: Which Activity (Rattus norvegicus) does the source give for `CC(C)CC(C(=O)O)c1cc(-c2ccc(C(F)(F)F)cc2)cc(-c2ccc(Cl)c(F)c2)c1` (racemic) here?
A: 28%

Q: What about the IC50 [5] of the same compound?
A: 250 nM

Q: For `CC(C)CC(C(=O)O)c1cc(-c2ccc(C(F)(F)F)cc2)cc(-c2cc(F)c(F)c(F)c2)c1` (racemic), which Activity (Rattus norvegicus) is on record?
A: 20%

Q: And the IC50 [5]?
A: 190 nM

Q: For `CC(C)CC(C(=O)O)c1cc(-c2ccc(C(F)(F)F)cc2)cc(N2CCNCC2)c1` (configuration not stated), which inhibition [1] is on record?
A: 5%

Q: For `COc1cc(Nc2cccn3cc(-c4ccc(F)cc4)nc23)ccc1-n1cnc(C)c1`, which IC50 [5] is on record?
A: 101 nM

Q: What about the Activity (Mus musculus [6]) of the same compound?
A: 35%

Q: Which IC50 [5] does the source give for `COc1cc(Nc2cccc3c2nc(-c2ccc(F)cc2)n3C)ccc1-c1cnc(C)o1` here?
A: 9 nM

Q: What about the Activity (Mus musculus [6]) of the same compound?
A: 42%

Q: Which results are given for `COc1cc(Nc2cc(C#N)cn(Cc3ccc(F)cc3)c2=O)ccc1-n1cnc(C)c1`?
A: Ratio IC50 [7]: 126; concentration at 6 h [8]: 391 ng/g; IC50 [5]: 159 nM

Q: For `COc1cc(Nc2cc(C(F)F)cn([C@@H](C)c3ccc(F)cc3)c2=O)ccc1-n1cnc(C)c1`, which Ratio IC50 [7] is on record?
A: 450

Q: And the IC50 [5]?
A: 44 nM

Q: Which results are given for `C[Si](C)(C)CC[C@H](CCC(F)(F)F)N1CC[C@@H](CC(=O)O)C(F)(F)[C@H]1c1ccc(C(F)(F)F)cc1`?
A: Activity (Mus musculus [9]): 64%; IC50 [5]: 230 nM

Q: Which inhibition [1] does the source give for `CC(C)CC(C(=O)O)c1cc(C(=O)c2cc(F)cc(F)c2)cc(-c2ccc(C(F)(F)F)cc2)c1` (configuration not stated) here?
A: 50%

Q: Which inhibition [1] does the source give for `CC(C)CC(C(=O)O)c1cc(-c2ccc(C(F)(F)F)cc2)cc(C2CCCC(C)N2)c1` (configuration not stated) here?
A: 0%

Q: With `COc1cc(Nc2cc(C(F)(F)F)cn([C@@H](C)c3ccc(F)cc3)c2=O)ccc1-n1cnc(C)c1` as the compound, how does the Ratio IC50 [7] read?
A: 155

Q: What about the IC50 [5] of the same compound?
A: 101 nM

Q: With `CCN(CC)c1ccc(Nc2nc(-c3ccc(-n4cc(C)nc4C)cc3)cs2)c(C)c1` as the compound, how does the IC50 [10] read?
A: 1100 nM

Q: For `CCN(CC)c1ccc(Nc2nc(-c3ccc(-n4cc(-c5ccccc5)nn4)cc3)cs2)c(C)c1`, which IC50 [10] is on record?
A: 1100 nM

Q: For `CCN(CC)c1ccc(Nc2nc(-c3ccc(-n4ccnc4C)cc3)cs2)c(C)c1`, which IC50 [10] is on record?
A: 1100 nM

Q: What does the source list for `CC(C)CC(C(=O)O)c1cc(OCc2cc(F)cc(F)c2)cc(-c2ccc(Cl)c(C(F)(F)F)c2)c1` (configuration not stated)?
A: concentration at 4 h [2]: 24.5 µM; Activity (Mus musculus [3]): 42%; concentration at 4 h [4]: 6.5 µM; IC50 [5]: 190 nM

Q: For `CC(C)CC(C(=O)O)c1ccc(OCC2CC2)c(-c2ccc(C(F)(F)F)cc2)c1` (configuration not stated), which Kp [11] is on record?
A: 0.08

Q: What about the concentration (Brain) of the same compound?
A: 2.7 µM

Q: And the IC50 [5]?
A: 240 nM

Q: Which inhibition [1] does the source give for `CC(C)CC(C(=O)O)c1cc(-c2ccc(C(F)(F)F)cc2)cc(N2CCN(c3ccc(C(F)(F)F)cc3)CC2)c1` (configuration not stated) here?
A: 63%

Q: Which results are given for `O=C(O)C1(c2ccc(-c3ccc(C(F)(F)F)cc3)c(F)c2)CC1`?
A: IC50 [5]: 92000 nM; permeability (Mus musculus [12]): 10%
